Assay [1] deals with corticospinal tract (CST) after midthoracic spinal cord transection with human Schwann cell grafts. Put plainly: Corticospinal Tract (CST) Regeneration Assay. As to conditions: inhibitor in fibrin glue; thirty-five days after grafting. It is filed as in vivo, adult nude rat. The arrangement: key: dramatically reduce (+++ or ++++) axonal degeneration; dramatically reduce (+++ or ++++) axonal degeneration. As for the experimental part: Corticospinal Tract (CST) Regeneration Assay. Proteasome inhibitors are assayed for their ability to improve corticospinal tract (CST) regeneration following thoracic spinal cord injury by promoting CST regeneration into human Schwann cell grafts in the methods of Guest et al. (1997, supra). […] Inhibitors are incorporated into a fibrin glue and placed in the same region. Anterograde tracing from the motor cortex using the dextran amine tracers, Fluororuby (FR) and biotinylated dextran amine (BDA), are performed. Thirty-five days after grafting, the CST response is evaluated qualitatively by looking for reduced degeneration of CST fibers in or beyond grafts and quantitatively by constructing camera lucida composites to determine the sprouting index (SI), the position of the maximum termination density (MTD) rostral to the GFAP-defined host/graft interface, and the longitudinal spread (LS) of bulbous end terminals. The latter two measures provide information about axonal die-back.

Assay [2] deals with transected axons from cultured sympathetic neurons. Put plainly: Wallerian degeneration of transected axons in cultured sympathetic ganglia. Further details: development of the axonal beading appearance / disintegration of transected axons into debris: dose or concentration left out as unconfirmed. As to conditions: for protective effect on Wallerian degeneration: added to sympathetic cultures prior to axotomy, EGTA 2 mM. In kind it is cell-based, rat. From the text:
Inhibiting the ubiquitin-proteasome pathway delays Wallerian degeneration. Wallerian degeneration in most transected mammalian nerve fibers is a complex sequence that entails degradation of the axon, changes in the ensheathing and glial cells, alterations in the blood-tissue barriers, and responses of macrophage-lineage cells (reviewed by Griffin et al., 1995). To study the underlying mechanisms involved in the axon degeneration process, we have used the degeneration of transected axons from cultured primary neurons as models (Buckmaster et al., 1995; George et al., 1995; Wang et al., 2001). In cultured sympathetic ganglia derived from postnatal day 3 (p3) rats, soma-deprived axons undergo a typical degenerative process (herein, George et al., 1995; Wang et al., 2001). The severed axons first appear normal for 6-10 hr, depending upon the duration of culturing prior to axotomy. For sympathetic ganglia that have been cultured for 5 days, the severed axons begin to develop such signs of early degeneration as focal swelling and beading approximately 8 hrs after the axons had been separated from their cell bodies. In most cases, the axons would be completely degenerated and detached after 12-16 hr post-axotomy. Similar degenerative processes were also observed in other types of cultured neurons, such as chicken dorsal root ganglion neurons and retinal ganglion cells.
We examined whether UPS is involved in axotomy-triggered Wallerian degeneration by using specific pharmacological inhibitors. It is known that for UPS to degrade a specific substrate protein, the sequential action of three enzymes, including a ubiquitin activating enzyme (E1), a ubiquitin conjugating enzyme (E2), and a ubiquitin ligase (E3), is required to covalently link ubiquitin to the substrate. Poly-ubiquitinated proteins are then targeted for degradation by the 26S proteasome, which is composed of two 19S proteasome regulatory particles and a 20S core. Substrate ubiquitination may also be reversed by ubiquitin proteases (reviewed by Weissman, 2001). In spite of the existence of multiple E2 and E3 molecules, the final and common step in degrading polyubiquitinated protein substrates is through the 26S proteasome machinery. Consistent with previous evidence for the existence and functioning of the UPS in axons (Campbell and Holt, 2001, 2003), components of UPS machinery, such as subunit C2 of the proteasome 20S, were found in both intact and transected axons from sympathetic neurons. Thus, to perturb UPS activity we used two mechanistically different proteasome inhibitors, MG132, a peptide-based reversible proteasome inhibitor (Rock et al., 1994), and lactacystin, a […] irreversible proteasome inhibitor (Fenteany et al., 1995), both of which had been extensively used to inhibit UPS activity in many different cell types including cultured neurons (Campbell and Holt, 2001, 2003).
24 hr post-axotomy when most of the axon debris has detached from the culture surface in control cultures, proteasome inhibitor-treated explants still retained many axons with some degeneration signs, which remained up to 36 hr post-axotomy.
8 hr post-axotomy, approximately 90% of axons from control HSV-infected explants, and only about 40% of axons from HSV-UBP2-infected ones, developed a beading appearance. However, the protective effects of UBP2 overexpression were less robust than those of the proteasome inhibitors, presumably due to the low expression levels of UBP2.
As previous studies have implicated calpains, a class of calcium-dependent proteases, in Wallerian degeneration (George et al., 1995; Finn et al., 2000), we also examined the contribution of calpain activity in our assays with specific calpain inhibitors such as ALLN (Finn et al., 2000). […] 16 hr after axotomy when most of the transected axons from control cultures degenerated into debris, there were still remaining axon fibers in ALLN-treated cultures.

In assay [3] the test system is microtubules and neurofilaments of transected axons. The assay is described as follows: Breakdown of axonal cytoskeleton (microtubules, neurofilaments) in transected axons, immunostaining and Western blotting. It is filed as cell-based, rat. From the text: Microtubule destabilization at the initiation stage of Wallerian degeneration in vitro. We next examined which cellular events might correlate with the involvement of UPS and calpains in Wallerian degeneration. We monitored the integrity of different subcellular organelles in the transected axons by both immunocytochemistry and membrane labeling. […] At the protein level, we observed a corresponding cleavage of the neurofilament subunits, neurofilament 160 (NF-160) and neurofilament 68 (NF68) as detected by Western blotting.
Apart from these axonal markers, however, the earliest detectable change appears to occur in the microtubules of transected axons. […] After 12 hr post-axotomy, the stained signals of fragmented microtubule structures weakened gradually and were replaced by many spheroid bodies in severed axons. By 16 hr after axotomy, almost all of the detected signals were spheroid bodies along the tracts of original axons. Even 16 hrs after axotomy when the majority of the axonal NF160 and NF68 has been degraded, most of the tubulin proteins still remained intact and the protein level remained stable according to Western blotting. To provide additional biochemical evidence for such an axotomy-elicited microtubule destabilization in transected axons at early stages of Wallerian degeneration, we separated monomeric (soluble, S) and polymerized (pellet, P) tubulins from transected axons and measured the depolymerization ratio (S/[S+P]) at different time points.
UPS and calpains mediate the breakdown of axonal cytoskeleton components. To explore the link between these cellular and molecular changes during Wallerian degeneration, we next examined whether proteasome inhibitors, calpain inhibitors, and EGTA affect neurofilaments and microtubules in transected axons. […] On the other hand, ALLN only delayed neurofilament degradation, but not the fragmentation of microtubules.
For orientation: Immunoblotting shows a protein as a band on a membrane.

In assay [4] the test system is NGF-deprived sympathetic neurons. The assay is described as follows: Neurite degeneration in NGF-deprived sympathetic neurons. It is filed as cell-based. Conditions: 36 hr after NGF deprivation. From the text:
Proteasome inhibitors also delay neurite degeneration in NGF-deprived sympathetic neurons. In addition to transected axons, axons from neurons that have been deprived of their physiological trophic factors may also undergo a Wallerian-like degeneration process (reviewed by Raff et al., 2002). If the distal part of an axon of a cultured sympathetic neuron is locally deprived of NGF, that part of the axon degenerates while the rest of the cell and axon survives (Campenot, 1982). Moreover, it has been shown that such an NGF deprivation-triggered axon degeneration is delayed in the sympathetic neurons from Wld^s mice (Deckwerth and Johnson, 1994). We thus decided to investigate whether UPS is also involved in NGF deprivation-triggered axon degeneration. Consistent with previous studies (for example, Deckwerth and Johnson, 1994), 36 hr after NGF deprivation, all of the cultured sympathetic neurons underwent a typical apoptosis program with death of cell bodies as detected by nuclei staining with Hoechst 33258 (a few normally stained nuclei are glial cells) and degeneration of axons as indicated by both morphological criteria and immunostaining.

Assay [5] deals with axons of cultured neurons. The assay is described as follows: Induction of axon degeneration by cytoskeleton-disrupting agent. It is filed as cell-based. From the text: Thus, among the three major polymer components of the axon cytoskeleton, microtubules play a particularly important role in maintaining the integrity of axons. Consistent is the observation of microtubule disruption as the earliest detectable change during the physiological process of axon pruning in Drosophila metamorphosis (Watts et al., 2003).

Assay [6] has as its system axons of cultured neurons. Put plainly: Axon degeneration elicited by calcium ionophore A23187 or ionomycin. It is filed as cell-based.

The values below come from patent publication US7238659B2, “Reducing axon degeneration with proteasome inhibitors” (Children's Medical Center Corporation, priority 2003, dated 2007).

Square brackets hold non-standard residues; d marks the D form. Peptide text beside a SMILES is read from it. * marks the point of attachment. Sta = CC(C)C[C@H](N)[C@@H](O)CC(=O)O; Isovaleryl = CC(C)CC(=O)*; Nle = CCCC[C@H](N)C(=O)O; Nva = CCC[C@H](N)C(=O)O; Cbz = O=C(OCc1ccccc1)*; CH2F = FC*

For `CC(C)C(O)C12NC(=O)C(C)(C)C1OC2=O` (stereo not drawn) [α-Methylomuralide, α-Methyl clasto-Lactacystin β-Lactone], in assay [1], the “Reduce Degeneration” value was “++++”. Take `CCCC[C@@H](C=O)NC(=O)[C@H](CC(C)C)NC(=O)[C@H](CC(C)C)NC(C)=O` [MG-101, Ac-Leu-Leu-Nle-CHO] (Ac-Leu-Leu-[Nle]-aldehyde): the “development of the axonal beading appearance” value in assay [2] is listed as “did not affect”. For the same molecule, the “disintegration of transected axons into debris” value in assay [2] (16 hr after axotomy) is “slightly delayed”. Further, in assay [3] (Western blotting), the “calpain-dependent degradation of neurofilaments NF160 and NF68” value is “completely prevented”. Moreover, the neurofilament degradation result in assay [3] (transected axons) is “only delayed”. Moreover, in assay [1], the “Reduce Degeneration” value is given as “+++”. `CCC[C@@H](C=O)NC(=O)[C@H](CC(C)C)NC(=O)[C@H](CC(C)C)NC(=O)OCc1ccccc1` [MG-115, Carbobenzoxy-L-leucyl-L-leucyl-L-norvalinal] (Cbz-Leu-Leu-[Nva]-aldehyde): in assay [1], the “Reduce Degeneration” value is “++++”. Turning to `COC(=O)C[C@H](NC(=O)[C@H](C)NC(=O)[C@@H](NC(=O)OCc1ccccc1)C(C)C)C(=O)CF` [Z-VAD-fmk] (Cbz-Val-Ala-Asp(OMe)-CH2F), in assay [2], the “protective effect on Wallerian degeneration” value (from here on “protective effect”) is reported as “did not result in any detectable protective effect”. Moreover, the “axon (neurite) degeneration after NGF deprivation” value in assay [4] is listed as “efficiently prevented”. For the same molecule, in assay [4] (Hoechst 33258 nuclei staining), the “death of cell bodies after NGF deprivation” value was “efficiently prevented”. Turning to `CC(C)CC(=O)N[C@H](C(=O)N[C@H](C(=O)N[C@@H](CC(C)C)[C@@H](O)CC(=O)N[C@@H](C)C(=O)N[C@@H](CC(C)C)[C@@H](O)CC(=O)O)C(C)C)C(C)C` [pepstatin.A] (Isovaleryl-VV[Sta]A[Sta]-OH), in assay [2], the “protective effect” value was “did not result in any detectable protective effect”. Take `C/C1=C/C(=O)O[C@@H]2C[C@@H](CC[C@H](C)/C=C\CC1)O[C@@](O)([C@@H]1CSC(=O)N1)C2` [latrunculin B]: the “induction of axon degeneration” value in assay [5] is “failed to induce axon degeneration”. As to `O=C(O)CN(CCOCCOCCN(CC(=O)O)CC(=O)O)CC(=O)O` [EGTA], the “protective effect” value in assay [2] is on record as “much stronger protective effect”. The “axon degeneration elicited by calcium ionophore A23187 or ionomycin” value in assay [6] was “blocked”. Also, the “degeneration of all examined subcellular markers (destabilization of microtubules and cleavage of neurofilaments)” value in assay [3] (transected axons) is “profoundly retarded”.

Consider `CC(C)C[C@H](NC(=O)[C@H](CC(C)C)NC(=O)[C@H](CC(C)C)NC(=O)OCc1ccccc1)B(O)O` [MG-262, Z-Leu-Leu-Leu-B(OH)2], for which the “Reduce Degeneration” value in assay [1] is given as “+++”.

For `CC(=O)N[C@@H](CSC(=O)[C@]1([C@@H](O)C(C)C)NC(=O)[C@H](C)[C@@H]1O)C(=O)O` [Lactacystin], the “time post-axotomy until degeneration is shown” value in assay [2] (untreated transected axons: early signs 8 hr post-axotomy) amounted to 16 h. In addition, the “degeneration of all examined subcellular markers (destabilization of microtubules and cleavage of neurofilaments)” value in assay [3] (transected axons) is “profoundly retarded”. The “Reduce Degeneration” value in assay [1] is listed as “+++”. On to `CC(C)C[C@H](NC(=O)[C@H](Cc1ccccc1)NC(=O)c1cnccn1)B(O)O` [PS-341, bortezomib], for which the “Reduce Degeneration” value in assay [1] is “++++”. Consider `CC(C)[C@H](O)[C@@]12NC(=O)[C@H](C)[C@@H]1OC2=O` [PS-519, clasto-Lactacystin β-Lactone], for which the “Reduce Degeneration” value in assay [1] is listed as “++++”.
